Counter-ions that a name gives are not always drawn.
Columns and labels:
IRAK4 = target: T1, IRAK4 (Homo sapiens, UniProt Q9NWZ3); experiment: Target protein degradation effect in K562 IRAK4-HiBiT cells (Nano-Glo HiBiT); type: cell-based; details: incubated 16 to 18 hours
T1 construct: expressed in transfected cells; host or cells: K562 IRAK4-HiBiT cells
T1 sequence (Q9NWZ3 1-460): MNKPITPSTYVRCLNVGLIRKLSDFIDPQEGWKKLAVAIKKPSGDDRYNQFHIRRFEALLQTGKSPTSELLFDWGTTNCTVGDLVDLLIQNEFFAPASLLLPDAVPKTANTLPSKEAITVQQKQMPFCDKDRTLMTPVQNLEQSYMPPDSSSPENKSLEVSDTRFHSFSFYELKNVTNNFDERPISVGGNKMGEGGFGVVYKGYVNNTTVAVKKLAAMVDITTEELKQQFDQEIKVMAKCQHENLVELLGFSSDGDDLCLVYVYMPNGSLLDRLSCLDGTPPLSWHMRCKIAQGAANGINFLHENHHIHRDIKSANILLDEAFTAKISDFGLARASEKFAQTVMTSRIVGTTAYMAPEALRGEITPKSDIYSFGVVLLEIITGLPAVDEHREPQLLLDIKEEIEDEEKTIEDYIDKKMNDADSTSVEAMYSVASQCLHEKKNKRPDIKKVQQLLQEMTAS
Experimental: Experimental purpose: In this experiment, the degradation effect of the test compound on the target protein IRAK4 in K562 IRAK4-HiBiT cells was detected.
• Cells: K562 IRAK4-HiBiT cells • Culture media: RPMI 1640+10% FBS+2 mM GlutaMax+1 mM sodium pyruvate+penicillin/streptomycin • Positive control: 1000 nM; negative control: 0.1% DMSO
• (1). The compound to be tested in powder form was dissolved in DMSO to 10 mM as a storage concentration, and 9 μL of the 10 mM compound to be tested was manually pipetted to column 1 and column 13 of an LDV plate using a pipette; • (2). 6 μL of DMSO was added to columns 2 to 12 and 14 to 24 using Multidrop Combi; [0688](3). the compound to be tested was 3-fold diluted (3 μL+6 μL) from columns 1 to 11 and 13 to 23 using Bravo; • (4). 25 nL of compound solution (columns 1 to 24 of the LDV plate) was transferred to an assay plate using Echo according to the plate layout; • (5). 25 nL of 1 mM positive control solution was transferred to the assay plate as a 100% degradation control (i.e., LC, HPE) and 25 nL of DMSO was transferred to the assay plate as a 0% control (i.e., HC, ZPE) using Echo.
• (1). The cell culture medium was discarded, and the cells were washed once with DPBS, digested with trypsin, and counted to prepare a cell suspension of […]; • (2). 25 µL/well of cell suspension was added to the assay plate containing the compound to be tested using Multidrop Combi at medium speed; • (3). the assay plate containing cells was returned to an incubator with 5% CO2 at 37° C. and incubated for 16 to 18 hours.
• (1). 25 µL/well of assay reagent (NanoGlo lysis buffer+substrate+LgBit protein) was added to the assay plate using Multidrop Combi at high speed, and the plate was shaken for 10 minutes; • (2). the plate was centrifuged at 2000 rpm for 1 minute to remove air bubbles; • (3). the plate was read on Envision using US Luminescence detection method.
The inhibition rate (IR) of the test compound was calculated using the following formula: IR (%)=(RLU vehicle control−RLU compound)/(RLU vehicle control−RLU positive control)×100%, and the vehicle control is the blank control. The inhibition rates of compounds at different concentrations were calculated in Excel, and then XLFit software was used to plot inhibition curves and calculate relevant parameters, including minimum inhibition rate, maximum inhibition rate, and DC50.

[1] = Pharmacokinetic evaluation in Beagles; type: in vivo
Experimental: In this study, male Beagles were selected as test animals, and LC/MS/MS method was used to quantify plasma concentrations of the test compound intravenously injected or intragastrically administered to Beagles at different time points, so as to evaluate the pharmacokinetic profile of the test drug in Beagles.
• Beagles (male, 9 to 11 kg, Jiangsu Yadong Institute of Experimental Animals Co., Ltd.).
A clarified solution or suspension of the test compound was injected into Beagles (feeding) via the tail vein (vehicle: 5% DMSO/10% Solutol/85% H2O), or intragastrically administered into Beagles (feeding). For intravenous injection, 1 mL of blood was collected from the forelimb vein at 0 h (pre-administration) and 0.083 h, 0.25 h, 0.5 h, 1 h, 2 h, 4 h, 6 h, 8 h, and 24 h after administration, and anticoagulated with EDTA-2K. The mixture was thoroughly vortexed and mixed, and centrifuged at 6000 g for 3 minutes at 2 to 8° C. For oral administration, 1 mL of blood was collected from the forelimb vein at 0 h (pre-administration) and 0.083 h, 0.25 h, 0.5 h, 1 h, 2 h, 4 h, 6 h, 8 h, and 24 h after administration, and anticoagulated with EDTA-2K. The mixture was thoroughly vortexed and mixed, and centrifuged at 6000 g for 3 minutes at 2 to 8° C. Plasma concentrations were determined by LC-MS/MS method, and relevant pharmacokinetic parameters were calculated using Phoenix WinNonlin 8.2.0 pharmacokinetic software with non-compartmental model linear-log trapezoidal method.

[2] = Intragastric administration (3 mg/kg)

## O=C1CCC(c2noc3c(NC(=O)CN4CCN(C[C@H]5CC[C@H](n6cc(NC(=O)c7cnn8ccc(N9C[C@H]%10C[C@@H]9CO%10)nc78)c(C(F)F)n6)CC5)CC4)cccc23)C(=O)N1 (stereo partly shown) [Hydrochloride of WX015]
IRAK4
  DC50: 4.12 nM
  Maximum inhibition rate: 106.70%
[1]; [2]
  Area under the drug-time curve (0-inf): 1.13 µM·h
  Peak concentration: 0.12 µM
  Time to peak concentration: 4.67 h
[1]; Intravenous injection (0.5 mg/kg)
  Area under the drug-time curve (0-inf): 0.27 µM·h
[1]; male, beagle, dog, plasma, Intravenous injection (0.5 mg/kg)
  clearance: 37.5 mL/min/kg
[1]; male, beagle, dog, plasma, Intravenous injection (0.5 mg/kg), read-out: Apparent volume of distribution
  Vd: 8.44 L/kg
[1]; male, beagle, dog, plasma, Intravenous injection (0.5 mg/kg), read-out: Elimination half-life (converted)
  half-life: 2.93 h
[1]; male, beagle, dog, plasma, oral, IV 0.5 mg/kg, intragastric 3 mg/kg, read-out: Bioavailability F
  bioavailability: 70.3%
